In US6384083B1, “USE OF ADAMANTANE AMINES OR STRUCTURALLY SIMILAR COMPOUNDS FOR COMBATING BORNA DISEASE VIRUS AND FOR THE PREVENTION AND TREATMENT OF AFFECTIVE DISEASES AND OTHER DISORDERS ASSOCIATED WITH BDV INFECTIONS IN HUMANS AND ANIMALS” (priority 1996, dated 2002):
Structures can show the parent of a compound that is named as a salt.

Key:
influenza A strains = settings: cited from earlier work
influenza B strains = settings: cited from earlier work
[1] = tested on: human Borna disease virus strain BDV-Hu-H1; test: Inhibition of BDV infection of young rabbit brain cells after one-hour pre-treatment; format: cell-based, Borna disease virus (human strain) in rabbit brain cells; settings: one-hour pre-treatment before infection, 100±10 ffu/mL BDV-Hu-H1, read-out: concentration that inhibits the infection of rabbit brain cells with human BDV to the extent of 50%
Procedure: (§1) Young rabbit brain cells were treated with amantadine sulfate and, in a comparison experiment, with meso-inositol. After this treatment, both samples were treated for 1 hour with a human Borna disease virus strain (100±10 ffu/mL with BDV-Hu-H1 (regarding this strain, refer also to L. Bode, et al., Mol. Psychiatry 1996, 1(3), 200-212)).
(§2) The highest in vitro dose, which permits normal, unimpaired cell growth, is 1.2 μg/mL, relative to the cell system.

rabbit brain cells = test: Cell growth tolerance in the rabbit brain cell system; format: cell-based; settings: relative to the cell system
Procedure: as §1, §2

[2] = tested on: human oligodendroglia cells (OL cells); test: Cell growth of OL cells under amantadine sulfate; settings: 1.2 μg/mL, whole period observed
Procedure: (§3) On the other side, freshly infected OL cells were treated with the same drug dose for 24 hours and then for a further 6 days after the infection.

BDV-Hu-H1 = test: Inhibition of BDV replication in human oligodendroglia (OL) cells; settings: already infected OL cells, 1.2 μg/mL, 6 days
Procedure: as §3

[3] = tested on: activated BDV infection / depression; test: Treatment of a BDV-infected patient with bipolar disease (severe depressive episode)
[4] = cited from earlier work

## NC12CC3CC(CC(C3)C1)C2 [amantadine hydrochloride]
Influenza A strains
  push back of virus production: by a power of 10
Influenza B strains
  sensitivity of the virus: not sensitive

## NC12CC3CC(CC(C3)C1)C2 [amantadine sulfate]
[1]
  IC50: 0.019 mg/L
Rabbit brain cells
  highest in vitro dose which permits normal, unimpaired cell growth: 1.2 µg/mL
[2]
  effect on cell growth: practically not affected
BDV-Hu-H1
  reduction of the number of infectious viruses (factor): more than 10,000
[3]; after the 11th day of treatment and also 5 months later
  Borna virus activity (protein expression in the blood leucocytes): could no longer be detected
[3]; from the 8th day to the 11th day, 50 to 200 mg daily
  course of depression under treatment: improved dramatically
[3]; patient
  day of treatment after which discharge from hospital was possible: 15 days
[3]; patient, until now
  undesirable side effects: no undesirable side effects

## NC12CC3CC(CC(C3)C1)C2 [amantadine, 1-adamantane amine]
[4]; in vivo
  half-lifetime: approximately 15 hours
[4]; oral
  absorption after oral administration: absorbed almost completely
[3]; patient under therapy
  depression-free time without hypomanic rebound effect: 5 months

## CC(N)C12CC3CC(CC(C3)C1)C2 (centres unmarked) [rimantadine, 1-adamantyl-(1-amino) ethane]
[4]; in vivo
  excretion / metabolism: metabolized in the liver
